Source: US20160235677A1, “METHOD OF CONVERTING A CRYSTALLINE COMPOUND TO AN AMORPHOUS COMPOUND, METHOD OF INCREASING THE SOLUBILITY OF A CRYSTALLINE COMPOUND IN A BIORELEVANT FLUID, AND NANOPARTICLES THAT ACHIEVE SUPERSATURATION” (Nanocopoeia, LLC., priority 2014, published 2016)
≈ marks a conversion by molar mass, not a printed value. Where a name gives a salt, the structure may show the parent alone. Read-outs that look alike come from different tables or passages of the source. Each block holds one compound with its values, some of them ahead of it.

Experiments:
[1] = XRD and DSC determinations of physical state of ENS-processed powders (Table B); assay type: physicochemical
Description: Thermal analysis is conducted using a TA Instruments Model Q200 DSC (New Castle, Del.) equipped with an RCS-90 refrigerated cooling system. Samples, in an amount of 3.5 mg±1.0 mg, are weighed into TA Instruments T-Zero aluminum pans and closed with lids. […] Nitrogen is used as the purge gas at a flow rate of 50 mL/min. All data analyses are performed using TA Universal Analysis 2000 software (TA Instruments, New Castle, Del.). T-Zero cell constant and temperature/enthalpy calibrations are conducted with the use of sapphire and indium standards, respectively.
X-ray powder diffraction is performed at room temperature using a Bruker D8 Discover using a Cu Kα radiation, point source filtered with a graphite monochromator and a Bruker Hi-Star two-dimensional x-ray detector (Bruker, Karlsruhe, Germany). Powder samples are pressed onto a sample holder made of single-crystal quartz cut off-axis. The reflected intensity is collected at 0.04° resolution from 2Θ=2° to 62° with an acquisition time of 20 minutes. Data analysis is performed using the JADE 8.0 software package (Materials Data Inc., Livermore, Calif.) with whole pattern fitting. The test method has a detection limit of 2% crystallinity.
A series of crystalline drug and polymer combinations were dissolved in solvents in the amounts and at the ratios set forth in Table B. The solutions were then sprayed using the ENS system described above. The resulting dry compounds were collected and analyzed according to the XRD, DSC and SEM test methods.

Caco-2 monolayers = experiment: Caco-2 Monolayer Test Method; assay type: in vitro ADME; conditions: Caco-2, FIGS. 8A and 8B, result in words
Description: Caco-2 monolayers are prepared in Millipore 96-cell Caco-2 plates and are used after a 3-week differentiation period. The monolayers separate the apical, or donor well, from the basolateral, or recipient well. The buffer used for the apical side is 1.98 g/L glucose in 10 mM HEPES, Hank's Balanced Salt Solution (HBSS) lx, with calcium, magnesium, without phenol red (HyClone, Logan, Utah) pH 7.4. The impermeable dye Lucifer yellow (in an amount of 100 μM) is added to test monolayer integrity. The basolateral side buffer is buffer, pH 7.4, without dye. […] The amount of test powder is selected to assure that if the powder was completely dissolved, the amount is sufficient to achieve ˜12 to 13 times the saturation concentration of the compound of interest previously measured in HBSS (15 μg/mL), in other words, a supersaturated solution. […] Where the compound of interest is not a substrate for p-glycoprotein (pGP), B→A efflux is not measured.
Buffer test samples are added to apical wells at 1 h after preparation and buffer alone is added to the basolateral side. […] The plates are assumed to be intact if there is no increase in fluorescence from leaking Lucifer yellow dye from the apical side. Individual cell monolayers are assumed intact if there is no increase in fluorescence in aliquots taken from the basolateral wells. […]

[2] = Differential Scanning Calorimetry (DSC) crystallinity / physical state; assay type: physicochemical; conditions: griseofulvin formulations
Description: Controls and Examples were tested according to the DSC test method.

[3] = Dissolution in Biorelevant Media with pH Transition (itraconazole, FaSSGF to FaSSIF); assay type: physicochemical
Description: (§1) Dissolution testing, based on pH change from acidic-to-neutral media, is performed according to USP 29 Apparatus 2 Guidelines (United States Pharmacopeial Convention. Chapter <711> Dissolution, Stage 6 Harmonization, Official Dec. 1, 2011. USP website: http://www.usp.org/sites/default/files/usp_pdf/EN/USPNF/2011-02-25711DISSOLUTION.pdf).
Where specified below, the USP method was modified to use smaller 100 mL glass vessels with matching sized paddles operated at a […] speed of 100 rpm in biorelevant media using a VanKel 7000 Dissolution Tester (VanKel Technology Group, Gary, N.C.).
Biorelevant media is prepared using FaSSIF, FeSSIF & FaSSGF Powder (biorelevant.com) a commercial source of sodium taurocholate and lecithin, hereafter abbreviated “SIF Powder.” Fasted state simulated gastric fluid (FaSSGF) and Fasted state simulated intestinal fluid (FaSSIF) are prepared using the formula provided by the vendor at http://biorelevant.com/fassif-fessif-fassgf-dissolution-media/fasted-fed-state-simulated-intestinal-gastric-fluid/how-to-make/, after specifying the desired volume quantity of medium to be prepared. For example, for 500 mL of FaSSGF, the test medium contains sodium chloride, 1 g, and SIF Powder, 30 mg. Solids are dissolved in approximately 480 mL deionized water. The FaSSGF solution is adjusted to a final pH of 1.6 using concentrated hydrochloric acid, and brought to a final volume of 500 mL by adding deionized water.
For two-stage dissolution testing, which consists of a gastric stage followed by an intestinal phase, the compound of interest is first added to a volume of FaSSGF that is equivalent to ¾ of the final test volume. For example, if the test vessel is 100 mL, the volume of FaSSGF is 75 mL. After allowing dissolution to proceed for 2 hours or another specified time interval, 25 mL of a Transition Medium is added to create a final volume of 100 mL in this example, with a final pH of 6.5. The final medium is equivalent in composition to FaSSIF, as per the formula provided at the above link at biorelevant.com.
The Transition Medium is prepared first by making Transition Buffer, 500 mL, which contains sodium chloride, 9.37 g, sodium hydroxide, 2.5 g, sodium phosphate monobasic dihydrate, 8.94 g. […] Larger quantities are prepared as required, maintaining the relative amounts each of Transition Buffer and SIF Powder.
The dissolution test is performed by weighing the test formulation containing the test compound, adjusting weights to achieve an equivalent amount of test compound across the various test formulations. […] Starting time for the dissolution test is recorded with the addition of the first drop. […]

[4] = itraconazole, cited from earlier work
[5] = oral, taken immediately after a full meal or with an acidic beverage; cited from earlier work
[6] = Dissolution in Buffer Media with pH Transition (itraconazole); assay type: physicochemical
Description: as §1
Where specified below, the USP method was modified to use smaller 100 mL glass vessels with matching sized paddles operated at a speed of 100 rpm in buffer media using a VanKel 7000 Dissolution Tester (VanKel Technology Group, Gary, N.C.).
Examples A2, A3, A5 and A6 and Controls A1-A6 were tested according to the Dissolution in Buffer Media with pH Transition Test method. […] The solution was left stirring for 120 minutes, after which 3 mL aliquots were drawn from each vessel. Immediately after the aliquots were removed from the vessels, 25 mL of 0.2 M tribasic sodium phosphate buffer was added to each vessel to produce in a dissolution media having a pH 6.8±0.05. Subsequently, 3 mL aliquots were drawn from each vessel after 135 min, 150 min, 180 min, 210 min, 240 min, and 300 min. The aliquots were then analyzed to determine the concentration of itraconazole present in the media. The results were recorded in μg/mL.
Since only one sample was collected before the pH transition, the AUC, Tmax and Cmax were calculated based on the results following pH transition.

[7] = Equilibrium / saturation solubility in test media; assay type: physicochemical; conditions: ITZ, experimentally determined
[8] = itraconazole; cited from earlier work
[9] = itraconazole, assumed value; cited from earlier work
[10] = after pH transition to FaSSIF pH 6.5±0.05

XRD and DSC determinations of physical state (amorphous or crystalline) [1]: mainly amorphous material.
Compound: C[C@@H](O[C@H]1OCCN(Cc2n[nH]c(=O)[nH]2)[C@H]1c1ccc(F)cc1)c1cc(C(F)(F)F)cc(C(F)(F)F)c1 [Aprepitant]

XRD and DSC determinations of physical state (amorphous or crystalline) [1]: with largely amorphous material.
Compound: CN1CC2c3ccccc3Oc3ccc(Cl)cc3C2C1 (stereo not drawn) [Asenapine Maleate]

calculated levels of crystallinity based on DSC [2]: 100%
Compound: COC1=CC(=O)C[C@@H](C)[C@]12Oc1c(Cl)c(OC)cc(OC)c1C2=O [Control 3, griseofulvin]
initial concentration and flux compared with unprocessed GF powder (Caco-2 monolayers): performed similarly to unprocessed GF powder

Compound: CCC(C)n1ncn(-c2ccc(N3CCN(c4ccc(OCC5COC(Cn6cncn6)(c6ccc(Cl)cc6Cl)O5)cc4)CC3)cc2)c1=O (stereo not drawn) [Control A1, Itraconazole]
Neutral Phase AUC (SD) (μg · hr/mL) [3, 10]: 0.75 (0.221) μg · hr/mL | Neutral Phase Cmax [3, 10]: 291 ng/mL | Neutral Phase Tmax [3, 10]: 2.25 h | Acid Phase C120 ([3]; itraconazole concentration at 120 minutes in 75 mL FaSSGF, 6 mg itraconazole equivalent): 0.112 µg/mL | reported aqueous solubility ([4]; acidic media): 4 µg/mL | reported aqueous solubility ([4]; neutral pH): 0.001 µg/mL | maximum absorption [5]: 55% | Neutral Phase Tmax ([6]; buffer, after pH transition to 6.8±0.05): 3.50 h | Neutral Phase AUC (SD) (μg · hr/mL) ([6]; buffer, after pH transition to 6.8±0.05, up to 300 min): 0.218 (0.078) μg · hr/mL | Neutral Phase Cmax ([6]; buffer, after pH transition to 6.8±0.05 with 0.2 M tribasic sodium phosphate): 61 ng/mL | Acid Phase C120 ([6]; itraconazole concentration at 120 minutes in 75 mL 0.1 N HCl pH 1, 6 mg itraconazole equivalent): 1.50 µg/mL | solubility in FaSSIF medium [7]: 0.08 µg/mL (≈ 0.113 µM) | log P [8]: 6.2 | pKa [8]: 3.7 | assumed solubility in 0.1 N HCl [9]: 4 µg/mL

XRD and DSC determinations of physical state (amorphous or crystalline) [1]: XRD and DSC consistent with crystalline
Compound: O=C(O)Cc1ccccc1Nc1c(Cl)cccc1Cl [Diclofenac]

XRD and DSC determinations of physical state (amorphous or crystalline) [1]: with mainly amorphous material.
Compound: COc1ccc2c(c1)c(CC(=O)O)c(C)n2C(=O)c1ccc(Cl)cc1 [Indomethacin]
